Assay results reported in patent EP0564397A1, “Antiatherosclerotic substituted phenylquinazoline derivatives” (SANDOZ LTD., priority 1992, dated 1993).

Columns and labels:
Settings in all cases: duration of treatment 8 days
HDL-cholesterol = experiment: Test A: In vivo HDL-cholesterol test
Text: (§1) a) Test A: In vivo HDL-cholesterol test: The test is effected according to the method described in the literature, e.g. in EP 528 146 Other conventional methods may be used to assay the blood serum samples for HDL-cholesterol and total triglycerides content.

total triglycerides = experiment: Test A: In vivo HDL-cholesterol test, blood serum samples assayed for total triglycerides content
Text: as §1

Apo A-I = experiment: Test B: Apo A-I test; assay type: in vivo
Text: b) Test B: Apo A-I test: The test is effected as described in the literature, e.g. in EP 528 146.

Row | Compound | HDL-cholesterol level increase (%) (HDL-cholesterol; average dose 83 mg/kg/day) | Total triglyceride level decrease (%) (total triglycerides; average dose 83 mg/kg/day) | Apo-I level increase (%) (Apo A-I; average dose 83 mg/kg/day) | HDL-cholesterol level increase (%) (HDL-cholesterol; average dose 53 mg/kg/day) | Total triglyceride level decrease (%) (total triglycerides; average dose 53 mg/kg/day) | Apo-I level increase (%) (Apo A-I; average dose 53 mg/kg/day)
1 | CC1=CSC2=Nc3ccccc3[C@@H](c3ccccc3)N12 [Example 1, R-isomer (free base), (R)-3-Methyl-5-phenyl-5H-thiazolo[2,3-b]quinazoline] | 402% | 15% | 62% |  |  | 
2 | Cc1ccc(C)c(OCCCC(C)(C)C(=O)O)c1 [Gemfibrozil] |  |  |  | 211% | 15% | 88%
